Like-named read-outs stand apart in the source and are kept apart here.
Assays:
Type in all cases: cell-based
[1] = tested on: N87 human gastric cancer cell line; experiment: Cytotoxic activity of dimers against N87 cells; details: read-out: Cell Line (IC50, nM) N87
Description: (§1) H226 is a human lung cancer cell line. N87 is a human gastric cancer cell line. OVCAR3 is a human ovarian cancer cell line. HCT116 is a human colon cancer cell line. HCT116/VM46 is a human colon cancer cell line that is multi-drug and paclitaxel resistant.

[2] = tested on: H226 human lung cancer cell line; experiment: Cytotoxic activity of dimers against H226 cells
Description: as §1

[3] = tested on: HCT116/VM46 human colon cancer cell line (multi-drug and paclitaxel resistant); experiment: Cytotoxic activity of dimers against HCT116/VM46 cells
Description: as §1

[4] = tested on: HCT116 human colon cancer cell line; experiment: Cytotoxic activity of dimers against HCT116 cells
Description: as §1

[5] = tested on: OVCAR3 human ovarian cancer cell line; experiment: Cytotoxic activity of dimers against OVCAR3 cells
Description: as §1

| Structure (SMILES) | IC50 ([1]; Homo sapiens) | IC50 ([2]; Homo sapiens, NCI-H226, read-out: Cell Line (IC50, nM) H226) | IC50 ([3]; Homo sapiens, HCT-116/VM46, Table 4) | IC50 ([4]; HCT-116, Table 4) | IC50 ([5]; Homo sapiens, OVCAR-3, read-out: Cell Line (IC50, nM) OVCAR3) | IC50 ([1]; Table 4, N87 human gastric cancer cell line) | IC50 ([2]; Table 4, H226 human lung cancer cell line, read-out: Cell Line (IC50, nM) H226) | IC50 ([3]; Table 4) | IC50 ([4]; Table 4) | IC50 ([5]; Table 4, OVCAR3 human ovarian cancer cell line, read-out: Cell Line (IC50, nM) OVCAR3) |
| --- | --- | --- | --- | --- | --- | --- | --- | --- | --- | --- |
| CN1CCN(c2ccc(C3=CN4C(=O)c5cc6c(cc5NC[C@@H]4C3)OCCCOc3cc4c(cc3OCCCCCCCCO6)C(=O)N3C=C(c5ccc(N6CCN(C)CC6)cc5)C[C@H]3C=N4)cc2)CC1 [IId-3] | 0.072 nM | 0.035 nM | 0.033 nM | 0.045 nM | 0.26 nM | – | – | – | – | – |
| CN1CCN(c2ccc(C3=CN4C(=O)c5cc6c(cc5NC[C@@H]4C3)OCCCOc3cc4c(cc3OCCCCCCCCO6)C(=O)N3C=C(c5ccc(N6CCN(C)CC6)cc5)C[C@H]3CN4)cc2)CC1 [IId-4] | – | – | – | – | – | 12 nM | 8.1 nM | 4.8 nM | 2 nM | 20 nM |

From patent publication US9902740B2, “Macrocyclic benzodiazepine dimers, conjugates thereof, preparation and uses” (BRISTOL-MYERS SQUIBB COMPANY, priority 2015, dated 2018)
